Data taken from patent US20260130885A1, “ANTIMICROBIAL COMPOSITIONS, PHARMACEUTICAL COMPOSITIONS AND USE THEREOF” (priority 2022, published 2026).
≈ marks a conversion by molar mass, not a printed value. Like-named read-outs stand apart in the source and are kept apart here.

Legend:
[1] = tested on: MRSA ATCC33591; experiment: Antibacterial activity assay (MIC, broth microdilution); format: cell-based, Staphylococcus aureus; settings: for MIC: Staphylococcus aureus; for combination effect: MIC
[2] = tested on: S. aureus NCTC8325; experiment: as above; format: cell-based, Staphylococcus aureus; settings: for MIC: Staphylococcus aureus; for combination effect: MIC, +8 mg/L DHA
[3] = tested on: S. aureus DAP-NS; experiment: as above; format: cell-based, Staphylococcus aureus; settings: for MIC: Staphylococcus aureus; for combination effect: MIC
[4] = tested on: MRSA SCCmec VT; experiment: as above; format: cell-based, Staphylococcus aureus; settings: for MIC: Staphylococcus aureus, MRSA; for combination effect: MIC
[5] = tested on: MRSA ATCC43300; experiment: as above; format: cell-based, Staphylococcus aureus; settings: for MIC: Staphylococcus aureus; for combination effect: MIC
[6] = tested on: MRSA USA300; experiment: Antibacterial activity assay (MIC by broth microdilution, MBC by subculture); format: cell-based, Staphylococcus aureus; settings: for combination effect: MIC
Experimental: (§1) The antimicrobial activity was based on MIC and MBC; MIC is the minimum inhibitory concentration and MBC is the minimum bactericidal concentration. The MIC of individual test agents against MRSA USA300 strains was determined using the broth microdilution method according to CLSI guidelines. Briefly, overnight bacterial cultures in LB medium were diluted 1:50 in fresh LB medium and incubated at 37° C. until reaching an OD600 of 0.5 to 0.6. Bacterial suspensions were diluted to a final concentration of 5×10^5 cfu/mL in fresh CAMHB and then exposed to each test agent at increasing doses in triplicate in 96-well plates for 24 hours at 37° C. The MIC of each agent was defined as the lowest concentration without visible bacterial growth. […] The lowest broth dilution that had no viable bacteria was considered the MBC.
(§2) Then, the combination effect was measured by calculating their corresponding fractional inhibitory concentration index (FICI) with the equation ΣFIC (FICi)=FICA+FICB=(CombA/MICA)+(CombB/MICB), where MICA and MICB are the MICs of drugs A and B alone, respectively, and CombA and CombB are the concentrations of drugs A and B in combination, respectively. Combination effect was defined as an FICI≤0.5, no interaction was defined as an FICI>0.5-4.0, and antagonism was defined as an FICI>4.

[7] = tested on: MRSA ATCC33592; experiment: Antibacterial activity assay (MIC, broth microdilution); format: cell-based, Staphylococcus aureus; settings: for MIC: Staphylococcus aureus; for combination effect: MIC
[8] = tested on: S. aureus ATCC29213; experiment: as above; format: cell-based, Staphylococcus aureus; settings: for MIC: Staphylococcus aureus; for combination effect: MIC, +8 mg/L DHA
[9] = tested on: antibiotic-resistant Staphylococcus aureus; experiment: MIC against all strains of Table 4; format: cell-based; settings: agent alone, all the bacterial strains under the examination
Experimental: as §1
as §2, with “Combination effect was defined as an FICI≤0.5, no interaction was defined as an FICI>0.5-4.0, and antagonism was defined as an FICI>4.” left out
The antibacterial activity of the SC5005-DHA composition against a series of antibiotic-resistant Staphylococcus aureus was analyzed, and the results are shown in Table 4.

[10] = tested on: VRSA SJC1200; experiment: Antibacterial activity assay (MIC, broth microdilution); format: cell-based, Staphylococcus aureus; settings: for MIC: Staphylococcus aureus, VRSA; for combination effect: MIC
[11] = tested on: MRSA ATCC49476; experiment: as above; format: cell-based, Staphylococcus aureus; settings: for MIC: Staphylococcus aureus; for combination effect: MIC
[12] = tested on: S. aureus NCTC8325 persister cells; experiment: Persister killing assay; format: cell-based, Staphylococcus aureus; settings: 16×MIC, 16 mg/L; FIG. 1
Experimental: (§3) The number of viable bacteria in broth after each exposure period was enumerated by a cfu assay and expressed as cfu/mL; the data shown are the mean±SD (standard deviation) of independent experiments. […] The number of viable bacteria in the broth after each exposure period was calculated by a cfu assay (cfu/mL); the data are shown as the mean±SD of three independent experiments (n=3 for each group). Since the standard deviation of each point is very small, the error line is not shown in each graph. The horizontal dashed line in the upper left graph and the upper right graph represents […] of the bacterial cells killed. In addition, the blank controls in FIG. 1 are shown as filled diamonds.
(§4) Bacteria were collected by centrifugation at 4000×g for 10 min at 4° C., washed with ice-cold PBS, and suspended in PBS with test agents. Controls received DMSO and ethanol vehicles at concentrations equal to those for drug-treated bacteria. At the designated times, the number of viable bacteria was assessed by serial dilution of a 100 μL aliquot bacterial suspension in PBS and then spread onto LB agar plates. After incubation at 37° C. for 18-24 hours, the number of colonies was counted and expressed as cfu/mL.

[13] = tested on: MRSA USA300 persister cells; experiment: Persister killing assay; format: cell-based, Staphylococcus aureus; settings: 16×MIC, 16 mg/L; FIG. 1
Experimental: as §3, §4

[14] = Staphylococcus aureus, fatty acid alone, read-out: MBC fatty acid
[15] = Staphylococcus aureus, fatty acid alone, read-out: MIC fatty acid
[16] = +8 mg/L DHA, MRSA USA300 (Table 4)
[17] = Staphylococcus aureus, amide compound alone, read-out: MBC
[18] = Staphylococcus aureus, amide compound alone, read-out: MIC
[19] = agent alone, MRSA USA300 (Table 4)

## CC/C=C\C/C=C\C/C=C\C/C=C\C/C=C\C/C=C\CCC(=O)O [DHA, docosahexaenoic acid]
[1]; agent alone
  MIC: 1020 µg/mL (≈ 3120 µM)
[2]; NCTC8325, agent alone
  MIC: 1020 µg/mL (≈ 3120 µM)
[3]; agent alone
  MIC: 1020 µg/mL (≈ 3120 µM)
[4]; agent alone
  MIC: 1020 µg/mL (≈ 3120 µM)
[5]; agent alone
  MIC: 1020 µg/mL (≈ 3120 µM)
[6]; Staphylococcus aureus, agent alone, MRSA USA300 (Table 4), read-out: MIC
  MIC: 1020 mg/L
[6]; [14]
  MBC: 1020 µg/mL
[6]; [15]
  MIC: 1020 mg/L
[7]; agent alone
  MIC: 1020 µg/mL (≈ 3120 µM)
[8]; ATCC29213, agent alone
  MIC: 1020 µg/mL (≈ 3120 µM)
[9]
  MIC: 1020 µg/mL
[10]; agent alone
  MIC: 1020 µg/mL (≈ 3120 µM)
[11]; agent alone
  MIC: 1020 µg/mL (≈ 3120 µM)

## CNC(=O)c1cc(Oc2ccc(NC(=O)Nc3ccc(Cl)c(C(F)(F)F)c3)cc2)ccn1 [Sorafenib]
[1]; +8 mg/L DHA
  combination effect: (Syn) (Synergy (Syn) was defined as an FICI≤0.5)
  MIC: 0.5 µg/mL (≈ 1.08 µM)
[1]; agent alone
  MIC: > 64 µg/mL
[2]
  combination effect: (Syn) (Synergy (Syn) was defined as an FICI≤0.5)
[2]; NCTC8325, +8 mg/L DHA
  MIC: 0.5 µg/mL (≈ 1.08 µM)
[2]; NCTC8325, agent alone
  MIC: 4 µg/mL (≈ 8.61 µM)
[3]; +8 mg/L DHA
  combination effect: (Syn) (Synergy (Syn) was defined as an FICI≤0.5)
  MIC: 0.5 µg/mL (≈ 1.08 µM)
[3]; agent alone
  MIC: 32 µg/mL (≈ 68.8 µM)
[4]; +8 mg/L DHA
  combination effect: (Syn) (Synergy (Syn) was defined as an FICI≤0.5)
  MIC: 0.5 µg/mL (≈ 1.08 µM)
[4]; agent alone
  MIC: > 64 µg/mL
[5]; +8 mg/L DHA
  combination effect: (Syn) (Synergy (Syn) was defined as an FICI≤0.5)
  MIC: 0.5 µg/mL (≈ 1.08 µM)
[5]; agent alone
  MIC: > 64 µg/mL
[6]; +8 mg/L DHA
  MBC: 1 µg/mL
  MIC: 0.5 mg/L
[6]; [16]
  MIC: 0.5 mg/L
  combination effect: (Syn) (Synergy (Syn) was defined as an FICI≤0.5)
[6]; [17]
  MBC: > 64 µg/mL
[6]; [18]
  MIC: > 64 mg/L
[6]; [19]
  MIC: >64 mg/L
[7]; +8 mg/L DHA
  combination effect: (Syn) (Synergy (Syn) was defined as an FICI≤0.5)
  MIC: 0.5 µg/mL (≈ 1.08 µM)
[7]; agent alone
  MIC: > 64 µg/mL
[8]
  combination effect: (Syn) (Synergy (Syn) was defined as an FICI≤0.5)
[8]; ATCC29213, +8 mg/L DHA
  MIC: 0.5 µg/mL (≈ 1.08 µM)
[8]; ATCC29213, agent alone
  MIC: 64 µg/mL (≈ 138 µM)
[10]; +8 mg/L DHA
  combination effect: (Syn) (Synergy (Syn) was defined as an FICI≤0.5)
  MIC: 0.5 µg/mL (≈ 1.08 µM)
[10]; agent alone
  MIC: > 64 µg/mL
[11]; +8 mg/L DHA
  combination effect: (Syn) (Synergy (Syn) was defined as an FICI≤0.5)
  MIC: 0.5 µg/mL (≈ 1.08 µM)
[11]; agent alone
  MIC: > 64 µg/mL

## CN[C@H](CC(C)C)C(=O)N[C@H]1C(=O)N[C@@H](CC(N)=O)C(=O)N[C@H]2C(=O)N[C@H]3C(=O)N[C@H](C(=O)N[C@H](C(=O)O)c4cc(O)cc(O)c4-c4cc3ccc4O)[C@H](O)c3ccc(c(Cl)c3)Oc3cc2cc(c3O[C@@H]2O[C@H](CO)[C@@H](O)[C@H](O)[C@H]2O[C@H]2C[C@](C)(N)[C@H](O)[C@H](C)O2)Oc2ccc(cc2Cl)[C@H]1O [vancomycin, reference compound]
[12]
  killing of persister cells (in words): resistant to the killing activity
[13]
  killing of persister cells (in words): resistant to the killing activity

## O=C(Nc1ccc2c(c1)OC(F)(F)O2)Nc1ccc(Cl)c(C(F)(F)F)c1 [PK150]
[1]; +8 mg/L DHA
  combination effect: | (Syn) (Synergy (Syn) was defined as an FICI≤0.5)
  MIC: 6.1e-05 µg/mL (≈ 0.000155 µM)
[1]; agent alone
  MIC: 0.0625 µg/mL (≈ 0.158 µM)
[2]
  combination effect: (Syn) (Synergy (Syn) was defined as an FICI≤0.5)
[2]; NCTC8325, +8 mg/L DHA
  MIC: 3.5e-05 µg/mL (≈ 8.87e-05 µM)
[2]; NCTC8325, agent alone
  MIC: 0.0625 µg/mL (≈ 0.158 µM)
[3]; +8 mg/L DHA
  combination effect: (Syn) (Synergy (Syn) was defined as an FICI≤0.5)
  MIC: 0.0156 µg/mL (≈ 0.0395 µM)
[3]; agent alone
  MIC: 0.0625 µg/mL (≈ 0.158 µM)
[4]; +8 mg/L DHA
  combination effect: (Syn) (Synergy (Syn) was defined as an FICI≤0.5)
  MIC: 0.00098 µg/mL (≈ 0.00248 µM)
[4]; agent alone
  MIC: 0.125 µg/mL (≈ 0.317 µM)
[5]; +8 mg/L DHA
  combination effect: (Syn) (Synergy (Syn) was defined as an FICI≤0.5)
  MIC: 0.00098 µg/mL (≈ 0.00248 µM)
[5]; agent alone
  MIC: 0.0625 µg/mL (≈ 0.158 µM)
[6]; +8 mg/L DHA
  MBC: 0.00098 µg/mL
  MIC: 0.00049 mg/L
[6]; [16]
  MIC: 0.00049 mg/L
  combination effect: (Syn) (Synergy (Syn) was defined as an FICI≤0.5)
[6]; MIC after adding DHA is less than ¼ of its original MIC, 8 mg/L DHA
  synergy of the amide compound with DHA (in words): synergistic antibacterial activity with DHA
[6]; [17]
  MBC: 2 µg/mL
[6]; [18]
  MIC: 0.0625 mg/L
[6]; [19]
  MIC: 0.0625 mg/L
[7]; +8 mg/L DHA
  combination effect: (Syn) (Synergy (Syn) was defined as an FICI≤0.5)
  MIC: 0.00098 µg/mL (≈ 0.00248 µM)
[7]; agent alone
  MIC: 0.0625 µg/mL (≈ 0.158 µM)
[8]
  combination effect: (Syn) (Synergy (Syn) was defined as an FICI≤0.5)
[8]; ATCC29213, +8 mg/L DHA
  MIC: 0.0039 µg/mL (≈ 0.00988 µM)
[8]; ATCC29213, agent alone
  MIC: 0.0625 µg/mL (≈ 0.158 µM)
[10]; +8 mg/L DHA
  combination effect: (Syn) (Synergy (Syn) was defined as an FICI≤0.5)
  MIC: 0.00012 µg/mL (≈ 0.000304 µM)
[10]; agent alone
  MIC: 0.125 µg/mL (≈ 0.317 µM)
[11]; +8 mg/L DHA
  combination effect: | (Syn) (Synergy (Syn) was defined as an FICI≤0.5)
  MIC: 1.5e-05 µg/mL (≈ 3.8e-05 µM)
[11]; agent alone
  MIC: 0.0625 µg/mL (≈ 0.158 µM)

## CCCCC/C=C\C/C=C\C/C=C\C/C=C\CCCC(=O)O [arachidonic acid]
[6]; [14]
  MBC: 1020 µg/mL
[6]; [15]
  MIC: 128 mg/L
